Test results as given in the supplement of paper PMC10307832.

Key:
Assay in all cases: relative viability (nuclei count vs DMSO), 5 days (fraction); higher = more cells survive
[1] = compound: Cc1ccc(F)c(NC(=O)Nc2ccc(-c3cccc4[nH]nc(N)c34)cc2)c1 [Linifanib] + Nc1nc2[nH]cc(CCc3ccc(C(=O)N[C@@H](CCC(=O)O)C(=O)O)cc3)c2c(=O)[nH]1 [Pemetrexed] (partner 0.2 µM)
In short: (§1)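 Cells from lung cancer lines were seeded into 1536-well plates and, one day later, dosed by pin tool. Treatments were either a single drug or a fixed dose of an anchor drug with five library-drug doses (not always all listed) in √10 steps. After 5 days, nuclei were stained in a one-step fixation (final 0.05% Triton X-100, 1% formaldehyde, 1 ug/ml Hoechst) and counted on 4× images, and relative viability is the treated-to-vehicle nuclei ratio, as the median of duplicate plates.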

[2] = compound: Cc1ccc(F)c(NC(=O)Nc2ccc(-c3cccc4[nH]nc(N)c34)cc2)c1 [Linifanib] + Cc1nc(Nc2ncc(C(=O)Nc3c(C)cccc3Cl)s2)cc(N2CCN(CCO)CC2)n1 [Dasatinib] (partner 0.075 µM)
In short: as §1

[3] = compound: Cc1ccc(F)c(NC(=O)Nc2ccc(-c3cccc4[nH]nc(N)c34)cc2)c1 [Linifanib] + COc1cccc2cc(-c3nc([C@H]4CC[C@H](C(=O)O)CC4)n4ncnc(N)c34)[nH]c12 [OSI-027] (partner 0.5 µM)
In short: as §1

[4] = compound: Cc1ccc(F)c(NC(=O)Nc2ccc(-c3cccc4[nH]nc(N)c34)cc2)c1 [Linifanib] + C[C@@H](Oc1cc(-c2cnn(C3CCNCC3)c2)cnc1N)c1c(Cl)ccc(F)c1Cl [Crizotinib] (partner 1 µM)
In short: as §1

[5] = compound: Cc1ccc(F)c(NC(=O)Nc2ccc(-c3cccc4[nH]nc(N)c34)cc2)c1 [Linifanib] + CC(=O)c1c(C)c2cnc(Nc3ccc(N4CCNCC4)cn3)nc2n(C2CCCC2)c1=O [Palbociclib] (partner 0.5 µM)
In short: as §1

[6] = compound: Cc1ccc(F)c(NC(=O)Nc2ccc(-c3cccc4[nH]nc(N)c34)cc2)c1 [Linifanib] + COc1cc2c(Oc3ccc(NC(=O)C4(C(=O)Nc5ccc(F)cc5)CC4)cc3F)ccnc2cc1OCCCN1CCOCC1 [Foretinib] (partner 0.25 µM)
In short: as §1

Cell Line	relative viability ([1]; first compound 0.03162 µM)	relative viability ([1]; first compound 0.1 µM)	relative viability ([1]; first compound 0.3162 µM)	relative viability ([2]; first compound 0.03162 µM)	relative viability ([2]; first compound 0.1 µM)	relative viability ([2]; first compound 0.3162 µM)	relative viability ([3]; first compound 0.03162 µM)	relative viability ([3]; first compound 0.1 µM)	relative viability ([3]; first compound 0.3162 µM)	relative viability ([4]; first compound 0.03162 µM)	relative viability ([4]; first compound 0.1 µM)	relative viability ([4]; first compound 0.3162 µM)	relative viability ([5]; first compound 0.03162 µM)	relative viability ([5]; first compound 0.1 µM)	relative viability ([5]; first compound 0.3162 µM)	relative viability ([6]; first compound 0.03162 µM)	relative viability ([6]; first compound 0.1 µM)	relative viability ([6]; first compound 0.3162 µM)
NCI-H1993	0.642	0.627	0.637	0.683	0.551	0.681	0.495	0.552	0.61	1.01	0.932	0.867	0.688	0.826	0.725	0.807	0.88	0.758
A-427	0.96	0.992	0.945	0.715	0.835	0.798	0.526	0.512	0.423	0.964	0.983	0.83	0.54	0.548	0.507	1.02	1.34	1.02
201T	0.317	0.309	0.317	0.571	0.623	0.559	0.671	0.86	0.745	0.999	1.02	1.04	0.369	0.371	0.348	0.968	1.22	1.1
SK-LU-1	0.794	1	0.966	0.205	0.196	0.193	0.387	0.472	0.337	1.03	0.958	0.864	0.359	0.449	0.366	0.805	0.816	0.811
NCI-H1651	0.648	0.612	0.561	0.499	0.393	0.398	0.624	0.8	0.829	0.834	0.929	0.831	0.536	0.527	0.487	0.774	1.04	0.66
LC-2-ad	0.307	0.293	0.269	0.618	0.871	0.489	0.722	0.951	0.855	0.588	0.404	0.381	0.499	0.471	0.421	0.905	0.911	0.904
NCI-H1734	0.401	0.447	0.45	0.529	0.53	0.428	0.597	0.618	0.53	0.768	0.834	0.735	0.322	0.357	0.394	0.87	0.989	0.856
COR-L 105	1.12	1.02	1.07	0.416	0.361	0.322	0.698	0.874	0.602	0.796	0.941	0.797	0.424	0.405	0.401	0.968	1.08	0.919
EKVX	0.388	0.413	0.399	0.662	0.662	0.547	0.756	0.707	0.712	0.939	1.01	0.875	0.447	0.383	0.415	0.787	0.886	0.686
NCI-H838	0.225	0.27	0.244	0.286	0.282	0.27	0.393	0.429	0.397	0.847	0.839	0.841	0.22	0.223	0.23	1.05	1.08	1.02
LOU-NH91	0.416	0.372	0.364	0.61	0.612	0.558	0.697	0.796	0.709	0.74	0.767	0.769	0.551	0.517	0.51	0.942	0.981	0.884
NCI-H2347	0.434	0.431	0.425	0.356	0.399	0.284	0.476	0.434	0.415	0.727	0.7	0.812	0.462	0.441	0.404	1.09	1.25	0.782
NCI-H1915	0.588	0.502	0.502	0.301	0.359	0.36	0.668	0.688	0.616	0.9	0.923	0.838	0.541	0.548	0.507	1.08	1.15	1.04
NCI-H3122	0.203	0.201	0.193	0.908	0.908	0.877	0.947	0.989	0.995	0.281	0.263	0.261	0.19	0.196	0.179	0.946	0.965	0.932
NCI-H2009	1.08	0.989	0.917	0.323	0.358	0.304	0.705	0.673	0.644	1.07	1.08	0.526	0.247	0.263	0.25	1.24	1.25	1.15
NCI-H1650	0.364	0.346	0.348	0.327	0.348	0.252	0.752	0.78	0.585	0.955	1.17	0.864	0.35	0.399	0.351	0.966	1.33	1.07
